The values below come from patent US10646442B2, “Liposome composition and method for producing same” (FUJIFILM Corporation, priority 2014, dated 2020).

Where a name gives a salt, the structure may show the parent alone.

In general, half-life refers to the time in which the quantity being followed falls by half. Read a low half-life as fast loss.

A short description of series [1]: Retentivity in blood (free pemetrexed concentration in blood plasma). The series is classed as in vivo. To be noted: mouse, intravenous, 6 mg/kg in terms of drug amount, tail vein injection, male C3H mice. As to the method:
Further, the liposome composition of Example 10 at a dose of 6 mg/kg in terms of drug amount was administered via tail vein injection to 8-week old male C3H mice under the non-fasting conditions. Blood was collected at 15 minutes, 1 hour, 4 hours, and 24 hours after the administration was completed, and the free pemetrexed concentration in blood plasma was quantified to calculate a T1/2.

The conditions of series [2]: reference value for free drug in mice; not among the administered groups; cited from earlier work.
The test system of series [3] is Capan-1 (human pancreatic cancer cell line). As to the kind of experiment: In vitro cancer cell growth inhibition. To be noted: Capan-1, cultured 144 hours, Luminescent Cell Viability Assay, read-out: IC50 (drug effect concentration that inhibits 50% of cancer cell growth). The series is classed as cell-based. As to the method:
2×10^3 cells/[…]/well of Capan-1 (human pancreatic cancer cell line) were seeded onto a 96-well plate. Subsequently, a free drug (gemcitabine hydrochloride) solution, and a drug encapsulated in the liposome compositions of Example 4 and Comparative Examples 4 and 5 were added at each concentration, and cultured until after 144 hours. The cell viability was calculated from the amount of luminescence obtained by a Luminescent Cell Viability Assay after the completion of the culture. In addition, a drug effect concentration (IC50) that inhibits 50% of cancer cell growth was determined.

`Nc1nc2[nH]cc(CCc3ccc(C(=O)N[C@@H](CCC(=O)O)C(=O)O)cc3)c2c(=O)[nH]1` [drug aqueous solution, pemetrexed disodium heptahydrate] gave a half-life in series [1] of 2 h. For the molecule `Nc1ccn([C@@H]2O[C@H](CO)[C@@H](O)C2(F)F)c(=O)n1` [free drug, gemcitabine hydrochloride], the “T1/2 of free gemcitabine in mice” value in series [2] is 0.7 h. The IC50 in series [3] was determined as 7 nM.
